Assay type in all cases: in vivo, Balb/c mice
In assay [1] the test system is LPS-induced ALI mice. The assay can be described thus: LPS-induced ALI model: BALF cell counting. The protocol:
Specific pathogen-free (SPF) Balb/c mice (♂/♀; 20-26 g; 8 weeks old) were purchased from Shanghai SIPPR-BK Experimental Animal Co., Ltd. Mice were kept in an isolated ventilated cage in an environment of 40-60% humidity, 24±2° C., and 12 hrs/12 hrs dark-light cycle, and had free access to food and water. The method for preparing the LPS-induced ALI model was simply described as follows. The mice were randomly divided into a control group (12 mice) and an LPS group (48 mice). The LPS group (48 mice) was further divided into four subgroups (12 mice in each subgroup). […] 24 hrs after LPS challenge, the oxygen saturation (SO2) of all mice was measured by a Moor VMS-OXY™ instrument which measured SO2 (%) in the microcirculation at the wavelength range of 500 to 650 nm. […]
The mice were euthanized to expose the trachea, and then the right lungs were lavaged three times with 0.4 mL/time of sterile normal saline containing bovine serum albumin (BSA) and 5000 IU/L heparin to collect the BALF via tracheal tube. […] The removed lung tissues were weighted after aspirating the surface blood, and the lung weight coefficient was calculated. The lung weight coefficient was an indicator of pulmonary edema, and it was measured by dividing the individual lung weight of each mouse by its total body weight.

In another assay the test system is CS-induced ALI mice. The assay can be described thus: CS-induced lung injury model: partial pressure of oxygen (PO2). To be noted: CT-NA 10 and 30 mg/kg intragastric; 24 hrs after last CS exposure; p<0.01. As to the method: Specific pathogen-free (SPF) female Balb/c mice (22-28 g; aged 8 weeks) were purchased from Shanghai SIPPR-BK Experimental Animal Co., Ltd. […] Model preparation: The mice were randomly divided into 5 groups (12 mice in each group), which were the control group (the mice were exposed to fresh air), the saline group (the mice were exposed to cigarette smoke), dexamethasone (Dex) group (1 mg/kg) (the mice were exposed to cigarette smoke), CT-NA 10 mg/kg group and CT-NA 30 mg/kg group (the mice were exposed to cigarette smoke). According to the grouping, the mice were intragastrically administered saline, Dex and CT-NA, respectively. Thereafter, the mice were exposed to fresh air or cigarette smoke generated from 3R4F research-grade cigarettes (containing about 600 mg TPM/m^3 and 29.9 mg nicotine/m^3) in a cuboid plastic box (65×50x×45 cm). Ten cigarettes were burned every day for seven days. After one cigarette was burned, the next cigarette was ignited. The daily body weight and general condition of the mice were checked. 24 hrs after the last exposure to the cigarette smoke, the partial pressure of oxygen (PO2) of all mice was measured by the Moor VMS-OXY™ measuring instrument, which was used to measure the oxygenated/deoxygenated hemoglobin concentration and oxygen saturation (percentage) in the microcirculation at the wavelength range of 500 to 650 nm. […]

Assay [2] relates to LPS-induced ALI mice. Put plainly: LPS-induced ALI model: albumin in BALF. To be noted: CT-NA 10 mg/kg (P<0.05) and 30 mg/kg (P<0.01), Dex 1 mg/kg (P<0.01); 24 hrs after LPS. The protocol:
Evans Blue was a dye that could quickly bind to albumin and was remains restricted within blood vessels because the endothelium was impermeable to albumin under normal physiological conditions. Pulmonary microvascular permeability was assessed by measuring the extravasation of Evans blue dye in the lungs. The method was briefly described as follows. The mice were randomly divided into control group (12 mice) and LPS group (48 mice). The LPS group (48 mice) was further divided into four subgroups (each subgroup contains 12 mice). To measure pulmonary microvascular permeability, the unanaesthetized mice of LPS group received intragastric instillation of NS, CT-NA at 10 mg/kg or 30 mg/kg, or Dex at 1 mg/kg respectively. One hour later, the anaesthetized mice were intratracheally instilled with NS (control group) and LPS (all LPS subgroups) at 10 μl/10 g of body weight. […] And then the absorbance of the Evans blue dye extracted in the supernatant was measured against formamide blank at 620 nm via standard curve method, and expressed as microgram of dye per 100 mg of wet lung weight. In addition, the concentration of albumin in BALF was measured at 628 nm using a spectrophotometer and an albumin measurement kit. The albumin concentration ratio assessed from BALF represented not only the albumin level but also the permeability of the pulmonary microvascular.

With `CN([C@@H]1CCc2c(CC(=O)[O-])c3cccnc3n2C1)S(=O)(=O)c1ccc(F)cc1.[Na+]` [Sodium salt hydrate], the “BALF cell infiltration, performance compared with Dex” value with LPS-induced ALI mice [1] (CT-NA 30 mg/kg versus 1 mg/kg Dex) was “essentially same performance as that of 1 mg/kg Dex”. Also, the “LPS-induced increase of total cells, neutrophils and macrophages in BALF” value in the assay with LPS-induced ALI mice [1] (CT-NA 10 and 30 mg/kg intragastric 1 h before and 12 hrs after LPS, BALF 24 hrs after LPS, P<0.01) was “significantly and dose-dependently attenuated”. Also, the “partial pressure of oxygen (PO2)” value in the assay on CS-induced ALI mice is given as “significantly elevated”. The “albumin content in BALF” value in the assay with LPS-induced ALI mice [2] is “considerably reduced”.

The values above are taken from patent US20220098197A1, “SALTS OF HETEROCYCLIC COMPOUND AND USE THEREOF” (priority 2019, published 2022).
